Results as given in the NIST ThermoML archive (doi:10.1021/je060475r).
± gives the expanded uncertainty stated by the source.

Experiment: xn = mol fraction of the nth substance listed
Settings: 101 kPa, Liquid

O=CN1CCOCC1 [N-formylmorpholine] + Cc1ccccc1
Settings	mass density [kg/m3]	viscosity [mPa·s]
298.15 K, x2 = 0	1146.06 ± 1.5	7.955 ± 0.31
298.15 K, x2 = 0.0997	1118.85 ± 1.3	6.045 ± 0.25
298.15 K, x2 = 0.1857	1095.98 ± 1.1	4.343 ± 0.19
298.15 K, x2 = 0.2987	1064.62 ± 0.94	3.106 ± 0.14
298.15 K, x2 = 0.3979	1036.62 ± 0.76	2.334 ± 0.11
298.15 K, x2 = 0.4996	1007.87 ± 0.57	1.769 ± 0.082
298.15 K, x2 = 0.5993	979.41 ± 0.65	1.376 ± 0.065
298.15 K, x2 = 0.701	949.94 ± 0.83	1.064 ± 0.052
298.15 K, x2 = 0.8004	920.72 ± 1	0.846 ± 0.043
298.15 K, x2 = 0.9	891.62 ± 1.2	0.681 ± 0.036
303.15 K, x2 = 0	1141.7 ± 1.4	6.877 ± 0.28
303.15 K, x2 = 0.0997	1114.45 ± 1.3	5.223 ± 0.22
303.15 K, x2 = 0.1857	1091.57 ± 1.1	3.824 ± 0.17
303.15 K, x2 = 0.2987	1060.17 ± 0.91	2.771 ± 0.12
303.15 K, x2 = 0.3979	1032.11 ± 0.73	2.116 ± 0.097
303.15 K, x2 = 0.4996	1003.25 ± 0.54	1.614 ± 0.076
303.15 K, x2 = 0.5993	974.76 ± 0.68	1.261 ± 0.061
303.15 K, x2 = 0.701	945.23 ± 0.86	0.994 ± 0.049
303.15 K, x2 = 0.8004	916.11 ± 1	0.79 ± 0.04
303.15 K, x2 = 0.9	887 ± 1.2	0.636 ± 0.034
313.15 K, x2 = 0	1132.96 ± 1.4	5.214 ± 0.22
313.15 K, x2 = 0.0997	1105.62 ± 1.2	4.037 ± 0.18
313.15 K, x2 = 0.1857	1082.68 ± 1.1	3.035 ± 0.14
313.15 K, x2 = 0.2987	1051.22 ± 0.85	2.248 ± 0.1
313.15 K, x2 = 0.3979	1022.87 ± 0.67	1.754 ± 0.082
313.15 K, x2 = 0.4996	993.89 ± 0.56	1.323 ± 0.063
313.15 K, x2 = 0.5993	965.36 ± 0.73	1.076 ± 0.053
313.15 K, x2 = 0.701	935.9 ± 0.91	0.854 ± 0.043
313.15 K, x2 = 0.8004	906.8 ± 1.1	0.69 ± 0.036
313.15 K, x2 = 0.9	877.53 ± 1.3	0.569 ± 0.031
323.15 K, x2 = 0	1124.33 ± 1.3	4.08 ± 0.18
323.15 K, x2 = 0.0997	1096.88 ± 1.2	3.219 ± 0.14
323.15 K, x2 = 0.1857	1073.89 ± 1	2.475 ± 0.11
323.15 K, x2 = 0.2987	1042.33 ± 0.8	1.864 ± 0.086
323.15 K, x2 = 0.3979	1013.75 ± 0.61	1.471 ± 0.07
323.15 K, x2 = 0.4996	984.5 ± 0.62	1.13 ± 0.055
323.15 K, x2 = 0.5993	955.91 ± 0.79	0.929 ± 0.046
323.15 K, x2 = 0.701	926.58 ± 0.97	0.747 ± 0.038
323.15 K, x2 = 0.8004	897.51 ± 1.1	0.613 ± 0.033
323.15 K, x2 = 0.9	868.21 ± 1.3	0.508 ± 0.028
333.15 K, x2 = 0	1115.63 ± 1.3	3.284 ± 0.15
333.15 K, x2 = 0.0997	1088.08 ± 1.1	2.622 ± 0.12
333.15 K, x2 = 0.1857	1065 ± 0.95	2.057 ± 0.094
333.15 K, x2 = 0.2987	1033.38 ± 0.74	1.576 ± 0.074
333.15 K, x2 = 0.3979	1004.52 ± 0.56	1.259 ± 0.06
333.15 K, x2 = 0.4996	975.06 ± 0.68	0.979 ± 0.048
333.15 K, x2 = 0.5993	946.52 ± 0.85	0.813 ± 0.041
333.15 K, x2 = 0.701	917.23 ± 1	0.66 ± 0.035
333.15 K, x2 = 0.8004	888.11 ± 1.2	0.544 ± 0.03
333.15 K, x2 = 0.9	858.77 ± 1.4	0.453 ± 0.026
343.15 K, x2 = 0	1107.96 ± 1.2	2.707 ± 0.12
343.15 K, x2 = 0.0997	1080.32 ± 1.1	2.189 ± 0.1
343.15 K, x2 = 0.1857	1057.15 ± 0.9	1.748 ± 0.081
343.15 K, x2 = 0.2987	1025.32 ± 0.69	1.353 ± 0.064
343.15 K, x2 = 0.3979	996.41 ± 0.55	1.096 ± 0.053
343.15 K, x2 = 0.4996	966.84 ± 0.73	0.888 ± 0.045
343.15 K, x2 = 0.5993	938.07 ± 0.9	0.72 ± 0.037
343.15 K, x2 = 0.701	908.7 ± 1.1	0.59 ± 0.032
343.15 K, x2 = 0.8004	879.44 ± 1.3	0.49 ± 0.027
343.15 K, x2 = 0.9	850.05 ± 1.4	0.412 ± 0.024
353.15 K, x2 = 0	1098.76 ± 1.2	2.274 ± 0.1
353.15 K, x2 = 0.0997	1070.98 ± 0.99	1.804 ± 0.084
353.15 K, x2 = 0.1857	1047.73 ± 0.84	1.505 ± 0.071
353.15 K, x2 = 0.2987	1015.94 ± 0.64	1.179 ± 0.057
353.15 K, x2 = 0.3979	986.63 ± 0.61	0.96 ± 0.048
353.15 K, x2 = 0.4996	957.13 ± 0.79	0.791 ± 0.04
353.15 K, x2 = 0.5993	928.16 ± 0.97	0.644 ± 0.034
353.15 K, x2 = 0.701	898.81 ± 1.1	0.531 ± 0.029
353.15 K, x2 = 0.8004	869.48 ± 1.3	0.444 ± 0.025
353.15 K, x2 = 0.9	839.94 ± 1.5	0.377 ± 0.023
